Data set [1] is classed as physicochemical. The text has this:
To produce the drug/solvent bulk solution comprising the API (LA), the desired amount of the LA was combined with the solvent N-methyl-2-pyrrolidone (NMP), in the indicated amounts (see individual experiments below). The API and solvent were combined in a glass vial or jar. Jars were mixed using the jar mill, Turbula, or shaker at room temperature until homogeneous. LA is soluble in NMP and can load higher concentrations (at least 40% w/w). After dissolving the API in the organic solvent, the bulk solution was manually filled into syringes and capped with a tip cap. The syringes used for filling were either 1.2 mL male polypropylene syringes, 1.2 mL male cyclic olefin copolymer syringes or 1 mL male cyclic olefin copolymer syringes. In some instances, the two syringes were coupled via the connector prior to packaging. Filled syringes were then packaged in labeled foil pouches or a plastic tray pack with foil lid with a Syringe A (polymer-solvent solution) and a desiccant pack and the pouches were sealed. After filling the syringes with the formulations, they were terminally sterilized with an external radiation dose of more than 15 kGy and less than 60 kGy from irradiation processing (E-beam, Gamma or X-ray). After terminal sterilization, the syringes were stored under refrigerated conditions (e.g., 2-8° C.) or accelerated conditions (>25° C. see individual experiments).

A further data set can be described thus: LA gelation studies. Type of data set: physicochemical. The conditions noted are these: drug solution in NMP; e-beam irradiated; 60° C., 150 rpm, up to 16 days. The method, then: Drug solutions were prepared as described above and filled into syringes or glass vials. Syringes were untreated, contained various amounts of silicone, or were plasma coated for lubrication. Samples were irradiated by e-beam irradiation at not less than 25 kGy and stored at accelerated conditions of 60° C. with agitation at 150 rpm for up to 16 days. Samples were inspected periodically to determine if the drug solution remained a solution or had formed a solid/gel by an inversion test. Samples that had “gelled” were transferred to 5° C. for subsequent testing. The gelation rate for each sample was calculated as Rate=1/(simulated 5° C. age at time of gelation in days). The Arrhenius equation was used to determine the simulated age, assuming standard reaction rate doubling for every 10° C. increase in temperature. […] Data was analyzed using JMP. […] Container type and lubrication were not significant. Samples were tested for leuprolide content by HPLC. Leuprolide content was then converted to leuprolide acetate by multiplying by 1.078 (based on molecular mass ratios). A marked difference in leuprolide acetate content between the gelled and non-gelled samples was seen, with the tipping point between solution and solid/gelled samples occurring at about 45% LA.

The text below walks through data of patent US20260048205A1, “SYSTEMS AND METHODS FOR MIXING SYRINGE VALVE ASSEMBLIES AND SYRINGE FORMULATIONS” (Tolmar International Limited, priority 2024, published 2026).

For `CCNC(=O)[C@@H]1CCCN1C(=O)[C@H](CCCNC(=N)N)NC(=O)[C@H](CC(C)C)NC(=O)[C@@H](CC(C)C)NC(=O)[C@H](Cc1ccc(O)cc1)NC(=O)[C@H](CO)NC(=O)[C@H](Cc1c[nH]c2ccccc12)NC(=O)[C@H](Cc1c[nH]cn1)NC(=O)[C@@H]1CCC(=O)N1` [LA, leuprolide acetate], the “solubility / loading in NMP” value in data set [1] is “at least 40 % w/w”. Besides, the “tipping point between solution and solid/gelled samples” value in “LA gelation studies” is on record as “about 45 % LA”.
